The text below walks through data of ChEMBL document CHEMBL5380808, “Design, Synthesis, and Biological Activity of Marinacarboline Analogues as STAT3 Pathway Inhibitors for Docetaxel-Resistant Triple-Negative Breast Cancer” (J Med Chem, 2023).

Series [1] in a line: Selectivity index, ratio of IC50 for cytotoxicity against human MRC5 cells to IC50 for antiproliferative activity against human MDA-MB-231 cells. Type of series: toxicity, cell-based. Conditions: MRC5 cells and MDA-MB-231 cells, read-out: Ratio IC50.
A short description of series [2]: Antiproliferative activity against docetaxel-resistant human MDA-MB-231-DTR cells assessed as reduction in cell viability incubated for 72 hrs by sulforhodamine B assay. It counts as functional, cell-based. Conditions: MDA-MB-231, 72 h. (In general: Sulforhodamine B stains cellular protein and so reports cell mass.)
Series [3] has as its target T1, Signal transducer and activator of transcription 1-alpha/beta (Homo sapiens) (UniProt P42224).
T1 sequence (whole entry): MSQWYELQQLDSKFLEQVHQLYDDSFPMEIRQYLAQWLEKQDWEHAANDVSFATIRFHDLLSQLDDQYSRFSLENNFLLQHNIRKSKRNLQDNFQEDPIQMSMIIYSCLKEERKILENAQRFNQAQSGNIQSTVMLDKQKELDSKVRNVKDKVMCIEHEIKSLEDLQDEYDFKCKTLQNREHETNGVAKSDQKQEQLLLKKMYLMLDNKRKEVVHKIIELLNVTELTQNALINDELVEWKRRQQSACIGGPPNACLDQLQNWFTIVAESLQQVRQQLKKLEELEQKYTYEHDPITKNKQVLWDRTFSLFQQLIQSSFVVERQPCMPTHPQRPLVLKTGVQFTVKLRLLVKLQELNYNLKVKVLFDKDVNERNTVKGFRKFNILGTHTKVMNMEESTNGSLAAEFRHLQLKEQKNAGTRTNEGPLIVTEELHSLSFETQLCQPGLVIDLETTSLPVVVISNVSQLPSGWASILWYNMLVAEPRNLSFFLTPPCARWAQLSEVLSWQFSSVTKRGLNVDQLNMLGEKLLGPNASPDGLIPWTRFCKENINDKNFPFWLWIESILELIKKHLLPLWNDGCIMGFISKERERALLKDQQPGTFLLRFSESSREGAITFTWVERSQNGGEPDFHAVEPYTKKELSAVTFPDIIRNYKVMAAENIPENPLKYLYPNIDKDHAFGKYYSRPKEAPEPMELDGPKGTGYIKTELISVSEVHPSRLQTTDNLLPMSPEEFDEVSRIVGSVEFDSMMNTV
The series is described as follows: Inhibition of STAT1 phosphorylation at S727 residue in docetaxel-resistant human MDA-MB-231-DTR cells assessed as decrease in phosphorylated STAT1 level at 2.5 to 10 uM incubated for 24 hrs by Western blot analysis. The conditions noted are these: dose 2.5-10 µM. Type of series: cell-based. (In general: In western blotting, separated proteins are transferred to a membrane and probed.)

A short description of series [4]: Synergistic antiproliferative activity against docetaxel-resistant human MDA-MB-231-DTR cells assessed as combination index at 2 uM incubated for 72 hrs in presence of 1 uM of docetaxel by Chou-Talalay method. Type of series: functional.
Series [5] in a line: Synergistic antiproliferative activity against docetaxel-resistant human MDA-MB-231-DTR cells assessed as combination index at 2 uM incubated for 72 hrs in presence of 2 uM of docetaxel by Chou-Talalay method. Type of series: functional.
The nature of series [6]: Synergistic antiproliferative activity against docetaxel-resistant human MDA-MB-231-DTR cells assessed as combination index at 4 uM incubated for 72 hrs in presence of 1 uM of docetaxel by Chou-Talalay method. Type of series: functional.
Series [7] can be described thus: Induction of cell cycle arrest in docetaxel-resistant human MDA-MB-231-DTR cells assessed as accumulation at G2/M phase at 5 uM incubated for 24 hrs by PI staining based flow cytometry analysis (reference value: 13.54%). Type of series: functional. In general terms: Flow cytometry measures light scatter and fluorescence of single cells or particles in a stream.
Series [8] can be described thus: Induction of apoptosis in docetaxel-resistant human MDA-MB-231-DTR cells assessed as increase in total cell death at 2.5 uM incubated for 48 hrs by Annexin V-FITC and PI staining based flow cytometry. It counts as functional.
Series [9] in a line: Induction of cell cycle arrest in docetaxel-resistant human MDA-MB-231-DTR cells assessed as accumulation at S phase at 5 uM incubated for 36 hrs by PI staining based flow cytometry analysis (reference value: 11.57%). Type of series: functional.
A short description of series [10]: Induction of cell cycle arrest in docetaxel-resistant human MDA-MB-231-DTR cells assessed as accumulation at G2/M phase at 10 uM incubated for 36 hrs by PI staining based flow cytometry analysis (reference value: 13.16%). It counts as functional.
The subject of series [11] is MDA-MB-231. Put plainly: Induction of cell cycle arrest at G2/M phase in docetaxel-resistant human MDA-MB-231-DTR cells assessed as upregulation of Chk2 phosphorylation at T68 at 2.5 to 10 uM incubated for 36 hrs by Western blot analysis. It counts as functional, cell-based. Conditions: dose 2.5-10 µM.
Series [12] can be described thus: Induction of cell cycle arrest in docetaxel-resistant human MDA-MB-231-DTR cells assessed as accumulation at subG1 phase at 5 uM incubated for 24 hrs by PI staining based flow cytometry analysis (reference value: 0.41%). Type of series: functional.
A short description of series [13]: Induction of cell cycle arrest in docetaxel-resistant human MDA-MB-231-DTR cells assessed as accumulation at G0/G1 phase at 5 uM incubated for 12 hrs by PI staining based flow cytometry analysis (reference value: 75.49%). It counts as functional.
Series [14] can be described thus: Induction of cell cycle arrest in docetaxel-resistant human MDA-MB-231-DTR cells assessed as accumulation at G0/G1 phase at 5 uM incubated for 24 hrs by PI staining based flow cytometry analysis (reference value: 75.49%). It counts as functional.
Series [15] in a line: Induction of cell cycle arrest in docetaxel-resistant human MDA-MB-231-DTR cells assessed as accumulation at G0/G1 phase at 5 uM incubated for 48 hrs by PI staining based flow cytometry analysis (reference value: 75.49%). It counts as functional.
Series [16] deals with MDA-MB-231. Put plainly: Induction of apoptosis in docetaxel-resistant human MDA-MB-231-DTR cells assessed as upregulation of cleaved-caspase-9 expression level at 2.5 to 10 uM incubated for 48 hrs by Western blot analysis. It counts as functional, cell-based. Conditions: dose 2.5-10 µM.
Series [17] relates to MDA-MB-231. Put plainly: Inhibition of cell invasion in docetaxel-resistant human MDA-MB-231-DTR cells at 3 to 6 uM incubated for 24 hrs by transwell invasion assay. It counts as functional, cell-based. The conditions noted are these: dose 3-6 µM.
Series [18] has as its system MDA-MB-231. Put plainly: Inhibition of cell migration in docetaxel-resistant human MDA-MB-231-DTR cells assessed as downregulation of Snail expression level at 3 to 6 uM incubated for 24 hrs by Western blot analysis. It counts as functional, cell-based. Conditions: dose 3-6 µM.
Series [19] concerns MDA-MB-231. Put plainly: Inhibition of cell migration in docetaxel-resistant human MDA-MB-231-DTR cells assessed as downregulation of vimentin expression level at 3 to 6 uM incubated for 24 hrs by Western blot analysis. Type of series: functional, cell-based. The conditions noted are these: dose 3-6 µM.
Series [20] has as its system MDA-MB-231. The series is described as follows: Antitumor activity against docetaxel-resistant human MDA-MB-231-DTR cells xenografted in BALB/c mouse assessed as tumor growth inhibition at 10 mg/kg, ip daily for 12 days. It counts as functional, organism-based. Conditions: time 12.0 day.
Series [21] in a line: Toxicity in BALB/c mouse xenografted with docetaxel-resistant human MDA-MB-231-DTR cells assessed as body weight change at 5 mg/kg, ip daily for 12 days. Type of series: organism-based. Conditions: in vivo, 288 h, time 12 day.
The subject of series [22] is MDA-MB-231. The series is described as follows: Antitumor activity against docetaxel-resistant human MDA-MB-231-DTR cells xenografted in BALB/c mouse assessed as reduction in tumor weight at 10 mg/kg, ip daily for 12 days in presence of docetaxel. It counts as functional, organism-based. Conditions: time 12.0 day.
Series [23] deals with MDA-MB-231. Put plainly: Antitumor activity against docetaxel-resistant human MDA-MB-231-DTR cells xenografted in BALB/c mouse assessed as downregulation of phosphorylated STAT3 level in tumor tissue at 10 mg/kg, ip daily for 12 days by Immunohistochemical analysis. The conditions noted are these: time 12.0 day. Type of series: functional, organism-based.

Structures are written as SMILES. Activity calls are given as the source filed them. The rule behind the calls is not given here.

As for `O=C(NCCc1c[nH]c2ccccc12)c1cc2c([nH]c3ccccc32)c(C(=O)c2ccc(Br)cc2)n1`, the selectivity ratio in series [1] is 10.7. The IC50 (commonly the concentration needed to halve the response being measured) in series [2] was 2960 nM. The inhibition entry in series [3] was “inactive”. Moreover, the CI in series [4] is 0.26; in series [5], 0.23; in series [6], 0.38. Moreover, the Activity in series [7] is on record as 21.18%; in [8], 5.55%; in [9], 20.82%; in [10], 29.72%; in [12] it was 1.75%; in series [13], 88.84%. The Activity in series [14] was 82.18%; in [15], 48.08%; in series [21], “Non-Toxic”. For the same compound, the outcome with MDA-MB-231 [11], in the series with MDA-MB-231 [16], in the series on MDA-MB-231 [20], in the series with MDA-MB-231 [22] and with MDA-MB-231 [23] was Active. The inhibition entry in the series with MDA-MB-231 [17] is “Dose-Dependent Effect”. The inhibition result with MDA-MB-231 [18] and in the series with MDA-MB-231 [19] was “Active” throughout.
